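Step 1: Grow cells in 96-well plates. Step 2: Expose to compound for 48 hours at 5 concentrations. Step 3: Interpolate endpoints linearly; if unreached, use highest concentration. Here, GI50 denotes the concentration required for 50% inhibition of growth.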 The source made the active and inactive calls. Cut-off read from the data, not from the text of the source: active = GI50 up to about 1.1 µM and inactive = higher.
Legend:
Test in all cases: NCI tumour cell line growth inhibition, 48 h
786-0 = test system: 786-0
ACHN = test system: ACHN
DU-145 = test system: DU-145
HCT-15 = test system: HCT-15
HOP-62 = test system: HOP-62
HOP-92 = test system: HOP-92
HT-29 = test system: HT-29
MDA-MB-435 = test system: MDA-MB-435
NCI-H23 = test system: NCI-H23
NCI/ADR-RES = test system: NCI/ADR-RES
RPMI-8226 = test system: RPMI-8226
SF-295 = test system: SF-295
SF-539 = test system: SF-539
SK-MEL-28 = test system: SK-MEL-28
SK-MEL-2 = test system: SK-MEL-2
SK-MEL-5 = test system: SK-MEL-5
SN12C = test system: SN12C
SR = test system: SR
SW-620 = test system: SW-620
UACC-257 = test system: UACC-257

SMILES | GI50 (786-0) | GI50 (ACHN) | GI50 (DU-145) | GI50 (HCT-15) | GI50 (HOP-62) | GI50 (HOP-92) | GI50 (HT-29) | GI50 (MDA-MB-435) | GI50 (NCI-H23) | GI50 (NCI/ADR-RES) | GI50 (RPMI-8226) | GI50 (SF-295) | GI50 (SF-539) | GI50 (SK-MEL-28) | GI50 (SK-MEL-2) | GI50 (SK-MEL-5) | GI50 (SN12C) | GI50 (SR) | GI50 (SW-620) | GI50 (UACC-257)
O=[N+]([O-])c1ccc(S(=O)(=O)Cc2ccccc2)c2nonc12 | 19.6 µM (inactive) | 22 µM (inactive) | 18.7 µM (inactive) | 22.3 µM | 22.7 µM (inactive) | 19.9 µM (inactive) | 18.7 µM (inactive) | 19.2 µM (inactive) | 19.1 µM (inactive) | 27 µM (inactive) | 25.1 µM (inactive) | > 100 µM (inactive) | 17.9 µM (inactive) | 20.5 µM (inactive) | 19.3 µM (inactive) | 18.5 µM (inactive) | 13.9 µM (inactive) | 24.2 µM (inactive) | 22.1 µM (inactive) | 16.1 µM (inactive)
CNC(=O)Oc1ccc(-c2cn3cc(OC(=O)NC)ccc3n2)cc1 | 26.7 µM (inactive) | 29 µM (inactive) | 68.9 µM (inactive) | 36.1 µM | 80.4 µM (inactive) | > 100 µM (inactive) | 41.5 µM (inactive) | 31.7 µM (inactive) | 87.3 µM (inactive) | 79.1 µM (inactive) | 19.8 µM (inactive) | 64.6 µM (inactive) | 27.6 µM (inactive) | 92.7 µM (inactive) | > 100 µM (inactive) | 26.7 µM (inactive) | 42.8 µM (inactive) | 21 µM (inactive) | 35.1 µM (inactive) | > 100 µM (inactive)
N#CC(C#N)=Cn1c(=S)[nH]c2ccccc21 | > 100 µM (inactive) | > 100 µM (inactive) | > 100 µM (inactive) |  | > 100 µM (inactive) | 77.8 µM (inactive) | > 100 µM (inactive) | > 100 µM (inactive) | > 100 µM (inactive) | > 100 µM (inactive) | > 100 µM (inactive) | > 100 µM (inactive) | > 100 µM (inactive) | > 100 µM (inactive) | > 100 µM (inactive) | > 100 µM (inactive) | > 100 µM (inactive) | > 100 µM (inactive) | > 100 µM (inactive) | > 100 µM (inactive)
CCOP1(=O)CC(C)=C(Cl)C(OC)C1 (centres undefined) | > 100 µM (inactive) | > 100 µM (inactive) | > 100 µM (inactive) | > 100 µM | > 100 µM (inactive) | > 100 µM (inactive) | > 100 µM (inactive) | > 100 µM (inactive) | > 100 µM (inactive) | > 100 µM (inactive) | > 100 µM (inactive) | > 100 µM (inactive) | > 100 µM (inactive) | > 100 µM (inactive) | > 100 µM (inactive) | > 100 µM (inactive) | > 100 µM (inactive) | > 100 µM (inactive) | > 100 µM (inactive) | > 100 µM (inactive)
C=C1CCN2CC[C@@H](OC(=O)/C(C)=C\C)[C@@H]12 | > 100 µM (inactive) | > 100 µM (inactive) | > 100 µM (inactive) | > 100 µM | > 100 µM (inactive) | > 100 µM (inactive) | 66.2 µM (inactive) | > 100 µM (inactive) | > 100 µM (inactive) | > 100 µM (inactive) | > 100 µM (inactive) | > 100 µM (inactive) | > 100 µM (inactive) | > 100 µM (inactive) | > 100 µM (inactive) | > 100 µM (inactive) | > 100 µM (inactive) | > 100 µM (inactive) | > 100 µM (inactive) | > 100 µM (inactive)
c1ccc(C(c2cccc3c2ccc2ccccc23)C(c2ccccc2)c2cccc3c2ccc2ccccc23)cc1 (centres undefined) | > 100 µM (inactive) | > 100 µM (inactive) | > 100 µM (inactive) | > 100 µM | > 100 µM (inactive) | > 100 µM (inactive) | > 100 µM (inactive) | > 100 µM (inactive) | > 100 µM (inactive) | > 100 µM (inactive) | > 100 µM (inactive) | > 100 µM (inactive) | > 100 µM (inactive) | > 100 µM (inactive) | > 100 µM (inactive) | > 100 µM (inactive) | > 100 µM (inactive) | > 100 µM (inactive) | > 100 µM (inactive) | > 100 µM (inactive)
O=C1c2ccccc2C(=O)c2nn(N=P(CP(=Nn3nc4c(n3)C(=O)c3ccccc3C4=O)(c3ccccc3)c3ccccc3)(c3ccccc3)c3ccccc3)nc21 | > 100 µM (inactive) | > 100 µM (inactive) | > 100 µM (inactive) | > 100 µM | > 100 µM (inactive) | 96.8 µM (inactive) | > 100 µM (inactive) | > 100 µM (inactive) | > 100 µM (inactive) | > 100 µM (inactive) | > 100 µM (inactive) | > 100 µM (inactive) | > 100 µM (inactive) | > 100 µM (inactive) | > 100 µM (inactive) | > 100 µM (inactive) | > 100 µM (inactive) | > 100 µM (inactive) | > 100 µM (inactive) | > 100 µM (inactive)
Cc1c2c(c(C)c3c4c(oc13)CCCC4)C=NCC2 | 35.2 µM (inactive) | 15.8 µM (inactive) | 15 µM (inactive) | 13.9 µM | 32.2 µM (inactive) | 11.5 µM (inactive) | 6.64 µM (inactive) | 14.4 µM (inactive) | 16.2 µM (inactive) | 15.4 µM (inactive) | 0.818 µM (active) | 16.1 µM (inactive) | 15.2 µM (inactive) | 18.9 µM (inactive) | 17.1 µM (inactive) | 14.9 µM (inactive) | 15.8 µM (inactive) | 6.58 µM (inactive) | 21.3 µM (inactive) | 14.7 µM (inactive)
CCOC(=O)c1cnc(N(C)C)nc1SC(=N)N | > 100 µM (inactive) | > 100 µM (inactive) | > 100 µM (inactive) | > 100 µM | > 100 µM (inactive) | > 100 µM (inactive) | > 100 µM (inactive) | > 100 µM (inactive) | > 100 µM (inactive) | > 100 µM (inactive) | > 100 µM (inactive) | > 100 µM (inactive) | > 100 µM (inactive) | > 100 µM (inactive) | > 100 µM (inactive) | > 100 µM (inactive) | > 100 µM (inactive) | 35.6 µM (inactive) | > 100 µM (inactive) | > 100 µM (inactive)
CCOC(=O)NC(Nc1ccc(C(=O)O)cc1)(C(F)(F)F)C(F)(F)F | > 100 µM (inactive) | > 100 µM (inactive) | > 100 µM (inactive) | > 100 µM | > 100 µM (inactive) | > 100 µM (inactive) | > 100 µM (inactive) | > 100 µM (inactive) | > 100 µM (inactive) | > 100 µM (inactive) | > 100 µM (inactive) | > 100 µM (inactive) | > 100 µM (inactive) | > 100 µM (inactive) | > 100 µM (inactive) | > 100 µM (inactive) | > 100 µM (inactive) | > 100 µM (inactive) | > 100 µM (inactive) | > 100 µM (inactive)
CN(C)/C=N/S(=O)(=O)c1nn2c(C=O)c(-c3cc4ccccc4oc3=O)nc2s1 | 1.92 µM (inactive) | 1.77 µM (inactive) | 5.56 µM (inactive) | 3.4 µM | > 30.2 µM (inactive) | 4.08 µM (inactive) | 0.918 µM (active) | 5.25 µM (inactive) | 9.68 µM (inactive) | 16.4 µM (inactive) | 1.39 µM (inactive) | > 44.1 µM (inactive) | 4.53 µM (inactive) | 2.38 µM (inactive) | 11.9 µM (inactive) | 2.77 µM (inactive) | 5.92 µM (inactive) | 5.73 µM (inactive) | 2.18 µM (inactive) | 11.8 µM (inactive)
O=C1c2ccccc2-c2nc(/C=C/c3ccccc3)cc3c2c1nc1ccccc13 | 30.5 µM (inactive) | 26.4 µM (inactive) | 68.4 µM (inactive) | 2.52 µM | 16.3 µM (inactive) | 26.5 µM (inactive) | 30.8 µM (inactive) | 13.9 µM (inactive) | 12.1 µM (inactive) | 33.8 µM (inactive) | 15.1 µM (inactive) | 23 µM (inactive) | 27.4 µM (inactive) | 23.1 µM (inactive) | 21.6 µM (inactive) | 2.32 µM (inactive) | 33.2 µM (inactive) | 1.8 µM (inactive) | 20 µM (inactive) | 89.5 µM (inactive)
Cc1csc(-c2cn(C)c3c2C(=O)C(=N)C=C3O)n1 | 32.4 µM (inactive) | 3.71 µM (inactive) | 4.12 µM (inactive) | 6.59 µM | 6.89 µM (inactive) | > 100 µM (inactive) | 8.69 µM (inactive) | 4.28 µM (inactive) | 2.79 µM (inactive) | 9.98 µM (inactive) | 2.83 µM (inactive) | 2.37 µM (inactive) | 5.01 µM (inactive) | 20.3 µM (inactive) | 19.8 µM (inactive) | 1.53 µM (inactive) | 39.1 µM (inactive) | 2.52 µM (inactive) | 9.73 µM (inactive) | 4.26 µM (inactive)
COc1ccc2oc(S(=O)(=O)N3CC(CCl)c4ccc(N)cc43)cc2c1 (centres undefined) | 0.0264 µM (active) | 0.12 µM (active) | 0.0767 µM (active) | 0.023 µM | 0.565 µM (active) | 8.79 µM (inactive) | 2.25 µM (inactive) | 0.0113 µM (active) | 0.401 µM (active) | 0.0377 µM (active) | 0.0482 µM (active) | 0.042 µM (active) | 0.0244 µM (active) | 54.1 µM (inactive) | < 0.0443 µM (active) | 0.019 µM (active) | 0.119 µM (active) | < 0.01 µM (active) | 0.0395 µM (active) | 0.766 µM (active)

— ChEMBL document CHEMBL1201862, “PubChem BioAssay data set” (2004)
